Data on six molecules can be found in US12122761B2, “2-azaspiro[3.4]octane derivatives as M4 agonists” (NOVARTIS AG, priority 2019, dated 2024).

Bounds are passed on as bounds.

Test [1] has as its target T1, human cloned CHRM4 receptor (M4_CHO cells) (Homo sapiens, UniProt P08173).
T1 construct: expressed in transfected cells; host or cells: CHO-K1
T1 sequence (P08173 1-479): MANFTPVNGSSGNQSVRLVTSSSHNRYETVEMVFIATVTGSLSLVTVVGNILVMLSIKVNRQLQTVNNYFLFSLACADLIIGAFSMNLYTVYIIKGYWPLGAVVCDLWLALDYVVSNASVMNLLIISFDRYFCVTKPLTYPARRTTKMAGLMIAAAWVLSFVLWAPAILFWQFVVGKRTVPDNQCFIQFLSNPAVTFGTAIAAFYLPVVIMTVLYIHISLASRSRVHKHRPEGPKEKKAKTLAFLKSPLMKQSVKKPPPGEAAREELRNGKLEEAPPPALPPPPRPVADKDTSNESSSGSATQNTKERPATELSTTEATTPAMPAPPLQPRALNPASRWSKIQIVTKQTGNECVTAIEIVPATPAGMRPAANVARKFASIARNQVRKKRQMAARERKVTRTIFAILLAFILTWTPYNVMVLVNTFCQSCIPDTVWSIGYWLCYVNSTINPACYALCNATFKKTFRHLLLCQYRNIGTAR
The experiment in a line: CHRM4 Ca++ Flux Assay (agonist mode, FDSS 7000EX). The class given is cell-based. As to conditions: for EC50: geometric mean if tested more than once, read-out: M4 FDSS EC50. The procedure:
(§1) The above examples were characterized by measuring the intracellular mobilization of Ca++ ions caused by signaling events mediated by the receptor. The Intra-cellular Calcium flux levels were captured by the highly sensitive Ca++ indicator, Calcium Assay Kit (BD Biosciences, Catalog Number 640178). The fluorescent activity from all receptors were monitored by the fluorescent imager, FDSS 7000EX (Hamamatsu) over a span of 3 minutes.
(§2) CHO-K1 cells stably expressing the human cloned CHRM4 receptor (M4_CHO cells) were grown and maintained in a monolayer culture with F12/HAM (Life Technologies) supplemented with 10% Fetal Bovine Serum, 1× Pen-Strep, and 0.4 mg/mL Geneticin in a humidified atmosphere (5% CO2) at 37° C. The cultures were grown to 80-90% confluency in T150 flasks (Corning) and washed with 1×DPBS then lifted with 0.05% Trypsin (Life Technologies). The cells were harvested in growth media then spun (1K rpm, 3 minutes) and cryopreserved using Recovery Cell Culture Freezing Media (Gibco Technologies). Cells were stored in liquid nitrogen and thawed a day before the assay.
Prior to the day of the assay, stable M4_CHO cells were thawed and plated on 384 well black walled clear bottom TC treated plates (Greiner Cat #781091) at 12K cells/well using F12/HAM Media supplemented with 10% FBS (Life Technologies) and kept overnight in a humidified atmosphere (5% CO2) at 37° C. The next day, cells were loaded with […] Ca^++ dye (BD Biosciences) using Loading Buffer (HBSS +Ca/+Mg, 20 mM HEPES, 2.5 mM Probenecid) and placed back in cell incubator for a minimum of 1 hour. After incubation, the dye was replaced with 45 μL Assay Buffer (HBSS −Ca/−Mg, 20 mM HEPES, 2.5 mM Probenecid) supplemented with 20 μM ATP (Sigma Aldrich) and kept at room temperature in the dark for 60 minutes before running on a cell imager. The FDSS 7000EX (Hamamatsu) was used to capture Ca^++ traces for a span of 3 minutes from cells treated with 11 point dose of compound in triplicate in order to generate dose response curves in agonist mode. All compounds were serially diluted in DMSO then prepared in Assay Buffer for Ca^++ flux studies. The dose response curves were generated from the average of triplicate wells obtained from each data point and used a non-linear regression of four parameter dose response algorithm. The Percent Activity (PA) was measured to EC100 of Carbachol.

For test [2], the target named is T2, human cloned CHRM2 receptor (M2_CHO cells) (Homo sapiens, UniProt P08172).
T2 construct: expressed in transfected cells; host or cells: CHO-K1
T2 sequence (P08172 1-466): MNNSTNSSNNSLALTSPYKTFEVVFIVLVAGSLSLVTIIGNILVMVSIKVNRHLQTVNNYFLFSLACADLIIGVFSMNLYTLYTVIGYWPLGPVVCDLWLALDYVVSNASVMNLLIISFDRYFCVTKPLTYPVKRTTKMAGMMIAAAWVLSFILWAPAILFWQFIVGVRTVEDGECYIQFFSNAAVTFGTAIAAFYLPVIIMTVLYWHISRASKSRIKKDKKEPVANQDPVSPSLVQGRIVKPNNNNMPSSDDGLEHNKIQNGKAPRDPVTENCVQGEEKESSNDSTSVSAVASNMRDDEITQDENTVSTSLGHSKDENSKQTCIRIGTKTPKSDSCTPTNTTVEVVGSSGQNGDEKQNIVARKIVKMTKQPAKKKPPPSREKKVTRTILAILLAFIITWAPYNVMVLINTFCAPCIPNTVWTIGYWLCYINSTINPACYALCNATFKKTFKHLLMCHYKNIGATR
The experiment in a line: CHRM2 Ca++ Flux Assay (agonist mode, FDSS 7000EX). The class given is cell-based. The conditions noted are these: for EC50: agonist mode, geometric mean if tested more than once, read-out: M2 FDSS EC50. The method, then: as §1
as §2, with “cloned CHRM2” for “cloned CHRM4”, “receptor (M2_CHO” for “receptor (M4_CHO”, “to 80-9 0%” for “to 80-90%”, “1×DPBS and” for “1×DPBS then”, “were” for “were harvested in growth media”, “and frozen” for “and cryopreserved”
Prior to the day of the assay, stable M2 CHO cells were thawed and plated on Greiner 384 well TC treated plate at a density of 12K cells/well and kept overnight in a humidified atmosphere (5% CO2) at 37° C. The following day, the cells were loaded with Ca^++ dye (BD Biosciences) using Loading Buffer (HBSS +Ca/+Mg, 20 mM HEPES, 2.5 mM Probenecid) and placed back in cell incubator for a minimum of 1 hour and maximum of 2 hours. After incubation, the dye was replaced with Assay Buffer (HBSS −Ca/−Mg, 20 mM HEPES, 2.5 mM Probenecid) supplemented with 20 μM ATP (Sigma Aldrich) and kept at room temperature for 60 minutes prior before running on cell imager. The FDSS 7000EX (Hamamatsu) was used to acquire Ca^++ traces from cells in response to compound treatment and the data was used to generate dose response curves in agonist mode. All compounds were serially diluted in DMSO then prepared in Assay Buffer for Ca^++ flux studies. The dose response curves were generated from the average of triplicate wells obtained from each data point and used a non-linear regression of four parameter dose response algorithm. The Percent Activity (PA) was measured to EC100 of Carbachol.

Setting [3] is: Percent Activity measured to EC100 of Carbachol.

For orientation: EC50 means the concentration that produces a half-maximal response. For the molecule `c1ccc(C2CCN([C@@H]3CCC4(C3)CN(c3nnco3)C4)CC2)c(OC[C@H]2COCCO2)c1` [Example 1C, 2-((R)-6-(4-(2-(((R)-1,4-dioxan-2-yl)methoxy)phenyl)piperidin-1-yl)-2-azaspiro[3.4]octan-2-yl)-1,3,4-oxadiazole], the Emax came out at 75% in test [1] (Percent Activity, read-out: M4 FDSS PA) and 15% in test [2] (Percent Activity measured to EC100 of Carbachol, read-out: M2 FDSS PA). In addition, the EC50 in test [1] is < 0.4 nM; in test [2], 17 nM.
Take `O=C(N1CC2(CC[C@@H](N3CCC(c4ccccc4OCCC(F)(F)F)CC3)C2)C1)C1(F)CC1` (single isomer, unassigned) [Example 7AA, (R)-(1-fluorocyclopropyl)(6-(4-(2-(3,3,3-trifluoropropoxy)phenyl)piperidin-1-yl)-2-azaspiro[3.4]octan-2-yl)methanone or (S)-(1-fluorocyclopropyl)(6-(4-(2-(3,3,3-trifluoropropoxy)phenyl)piperidin-1-yl)-2-azaspiro[3.4]octan-2-yl)methanone]: the “M4 FDSS PA” value in test [1] (Percent Activity) came out at 54%. In addition, the EC50 in test [1] was found to be 11 nM. In addition, the “M2 FDSS PA” value in test [2] (setting [3]) came out at 0%.
As to `Fc1ccc(C2CCOCC2)c(C2CCN([C@@H]3CCC4(C3)CN(c3cncnc3)C4)CC2)c1` (single isomer, unassigned) [Example 10D, (R)-6-(4-(5-fluoro-2-(tetrahydro-2H-pyran-4-yl)phenyl)piperidin-1-yl)-2-(pyrimidin-5-yl)-2-azaspiro[3.4]octane or (S)-6-(4-(5-fluoro-2-(tetrahydro-2H-pyran-4-yl)phenyl)piperidin-1-yl)-2-(pyrimidin-5-yl)-2-azaspiro[3.4]octane], in test [1] (Percent Activity), the “M4 FDSS PA” value is reported as 50%. The EC50 in test [1] came to 25 nM; in test [2] it was 506 nM. The “M2 FDSS PA” value in test [2] (setting [3]) was 11%.
For `Cc1nc(COc2ccccc2C2CCN([C@@H]3CCC4(C3)CN(C(=O)C3(F)CC3)C4)CC2)no1` (single isomer, unassigned) [Example 7Z, (R)-(1-fluorocyclopropyl)(6-(4-(2-((5-methyl-1,2,4-oxadiazol-3-yl)methoxy)phenyl)piperidin-1-yl)-2-azaspiro[3.4]octan-2-yl)methanone or (S)-(1-fluorocyclopropyl)(6-(4-(2-((5-methyl-1,2,4-oxadiazol-3-yl)methoxy)phenyl)piperidin-1-yl)-2-azaspiro[3.4]octan-2-yl)methanone], the “M4 FDSS PA” value in test [1] (Percent Activity) is listed as 50%. The EC50 in test [1] came to 9 nM. Moreover, the “M2 FDSS PA” value in test [2] (setting [3]) worked out at 0%.
For `O=C(N1CC2(CC[C@@H](N3CCC(c4cc(F)ccc4OC4CCOCC4)CC3)C2)C1)C1(F)CC1` (single isomer, unassigned) [Example 9D, (R)-(6-(4-(5-fluoro-2-((tetrahydro-2H-pyran-4-yl)oxy)phenyl)piperidin-1-yl)-2-azaspiro[3.4]octan-2-yl)(1-fluorocyclopropyl)methanone or (S)-(6-(4-(5-fluoro-2-((tetrahydro-2H-pyran-4-yl)oxy)phenyl)piperidin-1-yl)-2-azaspiro[3.4]octan-2-yl)(1-fluorocyclopropyl)methanone], in test [1] (Percent Activity), the “M4 FDSS PA” value is listed as 43%. Also, the figures for the EC50 in test [1] and in test [2] were 75 nM and < 26000 nM, respectively. In addition, in test [2] (setting [3]), the “M2 FDSS PA” value amounted to 0%.
Consider `O=C(N1CC2(CC[C@@H](N3CCC(c4ccccc4OC4CC5(COC5)C4)CC3)C2)C1)C1(F)CC1` (single isomer, unassigned) [Example 11D, (R)-(6-(4-(2-((2-oxaspiro[3.3]heptan-6-yl)oxy)phenyl)piperidin-1-yl)-2-azaspiro[3.4]octan-2-yl)(1-fluorocyclopropyl)methanone or (S)-(6-(4-(2-((2-oxaspiro[3.3]heptan-6-yl)oxy)phenyl)piperidin-1-yl)-2-azaspiro[3.4]octan-2-yl)(1-fluorocyclopropyl)methanone], for which the “M4 FDSS PA” value in test [1] (Percent Activity) is given as 38%. For the same molecule, the EC50 in test [1] was found to be 97 nM. Besides, in test [2] (setting [3]), the “M2 FDSS PA” value is 0%.
